Assay results taken from patent US5411976A, “New thiazolidine derivatives, process for preparing same and anti-amnestic composition containing same” (Kabushiki Kaisha Yakult Nonsha, priority 1987, dated 1995).
Non-standard residues stand in square brackets, D forms with d. Residues, ends and D or L forms follow the SMILES beside them. *: point of attachment. Thz = O=C(O)[C@@H]1CSCN1; Cbz = O=C(OCc1ccccc1)*

Tests used:
[1] = tested on: SCOP-induced amnestic rat; assay: Step-down type passive avoidance test in scopolamine-induced amnestic rats; format: in vivo, rat (Wister strain); settings: for Acquisition trial: Step-down latency / Acquisition trial: Number of step-down / Acquisition trial: Total time for the test: scopolamine after learning; for Retention trial: Step-down latency after 24 hours / Retention trial: Step-down latency after 48 hours: scopolamine 3.0 mg/kg i.p. after learning
Procedure: (2) A step-down type passive avoidance test
This test was carried out by using the undermentioned apparatus (A) and test animal (B) according to the undermentioned testing method (C).
(A) Test chamber for passive avoidance response of rats
A test chamber of 200(w)×200(1) mm in area was made of transparent acrylic resin plates for observation of the inside and was provided on one side thereof with an electrically insulated platform of 150(w)×200(1)×40(h) in size and on the bottom with a grid floor made of stainless steel which was equipped with a foot-shock generator/scrumbler (HASG-101/S, Medical Agent, Inc.) capable of sending electric current to the grid floor for giving a test animal electric foot shock.
5-Weeks-old male rats of Wister strain weighing 100-145 g (Japan Clea Co., Ltd.) were used as test animals.
The passive avoidance test consists of two steps; an acquisition trial and a retention trial. […] As control, only saline was administered intraperitoneally to a group of the rats. In the acquisition trial, the rat was placed on the platform in the test chamber and, when the rat stepped down on the floor, the electric current of 4 mA was immediately sent to the grid continuously until the rat went up on the platform. At the time the rat having gone up on the platform stayed there for more than 20 seconds, the rat was regarded to have learned the situation and taken out of the test chamber. Repeating this test with another rat under the same condition, the rats learned the situation were collected as passing the test for the acquisition trial. A total time of measurement in the acquisition trial was limited to 300 seconds as maximum, and the time elapsing until the rat stepped down to the grid floor (step-down latency, SDL), the total time elapsing until the rat learned the situation and the times of step-down were measured. […] Immediately after the acquisition trial, scopolamine hydrobromide (SCOP) dissolved in saline was administered intraperitoneally in a dose of 3.0 mg/kg of body weight to the rat to prepare a SCOP-induced amnestic rat. As control, only saline was administered intraperitoneally to a group of the rats. The retention trial was carried out by putting the rat on the platform of the test chamber after the lapse of 24 and 48 hours from the acquisition trial, and the time elapsing until the rat went down to the floor (SDL) was measured. A statistical treatment of the data obtained was made according to the Student's t-test.

[2] = molecular target: T1, prolyl endopeptidase (Homo sapiens, UniProt P48147); assay: Inhibitory activity to prolyl endopeptidase (IC50); format: biochemical
T1 sequence (P48147 1-710): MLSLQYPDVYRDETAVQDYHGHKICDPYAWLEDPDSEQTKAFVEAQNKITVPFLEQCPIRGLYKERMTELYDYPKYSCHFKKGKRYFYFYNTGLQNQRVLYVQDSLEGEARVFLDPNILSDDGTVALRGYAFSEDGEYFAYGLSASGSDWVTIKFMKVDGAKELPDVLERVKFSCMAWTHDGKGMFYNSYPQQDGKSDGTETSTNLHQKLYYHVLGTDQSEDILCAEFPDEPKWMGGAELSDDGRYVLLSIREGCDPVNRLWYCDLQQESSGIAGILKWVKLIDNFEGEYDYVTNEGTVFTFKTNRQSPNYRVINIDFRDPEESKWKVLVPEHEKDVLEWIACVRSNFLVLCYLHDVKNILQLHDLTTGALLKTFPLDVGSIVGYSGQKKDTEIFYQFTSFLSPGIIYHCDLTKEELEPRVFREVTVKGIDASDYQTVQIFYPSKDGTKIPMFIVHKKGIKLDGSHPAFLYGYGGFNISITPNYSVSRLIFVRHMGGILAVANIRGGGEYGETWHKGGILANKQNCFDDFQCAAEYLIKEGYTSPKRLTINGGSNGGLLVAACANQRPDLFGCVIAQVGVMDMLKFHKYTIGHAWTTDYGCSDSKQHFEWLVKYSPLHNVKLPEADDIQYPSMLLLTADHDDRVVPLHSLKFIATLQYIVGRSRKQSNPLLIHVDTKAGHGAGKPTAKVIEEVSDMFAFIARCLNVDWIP

[3] = 2.2 mg/kg i.p. one hour before acquisition trial

Row | Inhibitory activity in vitro (in words) [2] | Structure (SMILES) | Acquisition trial: Step-down latency [1, 3] [s] | Retention trial: Step-down latency after 24 hours ([1]; 2.2 mg/kg i.p.) [s] | Retention trial: Step-down latency after 48 hours ([1]; 2.2 mg/kg i.p.) [s] | Acquisition trial: Number of step-down ([1]; 2.2 mg/kg i.p.) [times] | Acquisition trial: Total time for the test ([1]; 2.2 mg/kg i.p.) [s] | Retention trial: Step-down latency after 24 hours ([1]; 11.0 mg/kg i.p.) [s] | Retention trial: Step-down latency after 48 hours ([1]; 11.0 mg/kg i.p.) [s] | Acquisition trial: Number of step-down ([1]; 11.0 mg/kg i.p.) [times] | Acquisition trial: Step-down latency ([1]; 11.0 mg/kg i.p.) [s] | Acquisition trial: Total time for the test ([1]; 11.0 mg/kg i.p.) [s]
1 | not effective in vitro | O=C([C@@H]1CSCN1C(=O)OCc1ccccc1)N1CSC[C@H]1CO [Example 3, N-benzyloxycarbonyl-L-thioprolyl-L-thioprolinol] | 9.8 | 238.2 | 174.0 | 2.4 | 67.5 | – | – | – | – | –
2 | – | O=C[C@@H]1CSCN1C(=O)[C@@H]1CSCN1C(=O)OCc1ccccc1 [Example 4, N-benzyloxycarbonyl-L-thioprolyl-L-thioprolinal] (Cbz-[Thz]-[Thz]-aldehyde) | 7.6 | 170.9 | 176.5 | 2.0 | 52.1 | 245.7 | 177.0 | 2.2 | 8.9 | 57.1
